The record followed here is US5236955A, “Anti-fungal agent” (Washington University, priority 1992, dated 1993).

In one assay the test system is C. neoformans. Description: Metabolic stability of O4 and resistance in C. neoformans cultures. The format is cell-based, Cryptococcus neoformans. On the procedure: Cultreus of C. neoformans were exposed to a single dose of 300 μM O4 or 0.1% EtOH during mid-log phase growth (O4A, EtOH1) as in FIG. 1. Two hours later, an aliquot was removed from the culture and subjected to centrifugation at 1500×g for 10 min. The "used" O4-containing media was added to EtOH-treated cells (O4B). "Fresh" O4 was added to cells (final concentration=300 μM) that had already been exposed to O4 for 2 h (O4C). at 24 H, O4-treated cells were again pelleted and resuspended in "fresh" O4-containing media (final concentration=300 μM (O4E)). The "used" O4 media was added to a fresh culture of untreated cells (O4D) and their growth was compared to an identical population of cells treated with EtOH alone (EtOH2).
A series of tests were conducted to assess the metabolic stability of the compound (FIG. 2). Media was harvested from cells treated with a single dose of 300 μM O4 for 2 hr or for 24 hr and added to a exponentially growing culture of C. neoformans that had never been exposed to fatty acid analog. 100 fold and 10 fold decreases (respectively) in viable cell number were observed over the ensuing 2 hr (O4B and O4D in FIG. 2). […] Exponentially growing cultures were also exposed to a single 300 μM dose of O4, a single dose of 0.1% EtOH, or to no additions. Aliquots of each of the cultures were removed 4 and 24 hr later and plated on Sabouraud/agar. […]

In another assay the test system is C. albicans. Description: Viability of C. albicans. The format is cell-based. As to conditions: Candida albicans. On the procedure: Oxatetradecanoic acids were added (final concentraton=25-500 μM) as a single dose to log phase cultures of C. alibcans grown in SAB at 30° C. (Panels A and B) and to log phase cultures of S. cerevisiae grown in YPD at 30° C. (Panels C and D). The results were compared to the number of viable organisms present in cultures treated with 0.1% EtOH alone. […] A single does of alphotericin B (final concentration=55 μM) was added to parallel cultures which served as positive controls. Assays were done in duplicate. Representative tests are shown.
Saccharomyces cerevisiae strain YM2061 (MATa ura3-52 his3Δ200 ade2-101 lys2-801 met LEU2::pRY181 can1; Flick and Johnston, Mol. Cell. Biol. 10, 4757-4769 (1990), Candida albicans strain B311 (obtained from the American Type Tissue Culture, Rockville, Md.), or Cryptococcus neoformans strain L210425 (a clinical isolate that is part of the permanent culture collection of the Mycology Laboratory, Barnes Hospital, St. Louis, Mo.) were grown overnight at 30 C. The S. cerevisiae strain was incubated in YPD medium (1% bacto-yeast extract, Gibco, Long Island, N.Y.), 2% bacto-peptone (Gibco), 2% dextrose). The C. albicans and C. neoformans strains were grown in Sabouraud's media (SAB; 2% (w/v) dextrose, 1% bacto-peptone). The following morning the cultures were diluted into fresh medium to the desired density at 600 nm (early log phase), and subsequently incubated in a rotary shaker at 30° C. until an A600 =0.5 (mid log phase) was achieved. The culture was then divided into 10 ml aliquots. A single 10 μl aliquot of a stock solution of fatty acid analog (prepared in various concentrations using absolute ethanol) was added to the culture so that the final concentration of the compound was 100-500 μM (T=0). Ten microliters of ethanol alone was added to one 10 ml culture which served as the negative control. Amphotericin B (AmB; in the form of Fungizone, Squibb) was added (final concentration=55 μM) to another culture which served as the positive control. At T=0 and 0.5-24 h after addition of fatty acid analog to the subcultures, an aliquot was removed for determining the density of the subculture at 600 nm. Cell viability was determined at each of these time points by (i) serially diluting the aliquot in 0.15M NaCl and counting cell number in a hemocytometer and (ii) plating 2-3 of the dilutions in triplicate onto plates of SAB/agar (C. albicans and C. neoformans) or YPD/agar (S. cerevisiae). These plates were subsequently incubated at 30° C. for 24-48 hr to allow for the growth of colonies. The data were expressed as the ratio of viable cells/ml in the fatty acid analog treated subculture to the number of viable cells/ml in the negative (ethanol) control culture.

With `CCCCCCCCCCOCCC(=O)O` [O4, 4-oxatetradecanoic acid], the log reduction at 300 µM with C. neoformans (Cryptococcus neoformans, cells already exposed for 2 hr or 24 hr (O4C, O4E), read-out: further reduction in viable cell number on fresh 300 μM media (converted)) is 0.699; with C. albicans (300 μM, 2 hr after addition, read-out: reductions in the number of viable C. albicans), under 0.699. Besides, the “resistance or tolerance of cells after exposure” value in the assay with C. neoformans (colonies from cultures exposed 4 and 24 hr, re-exposed to 300 μM) is “do not become resistant or tolerant”. Moreover, in the assay with C. albicans (500 μM, read-out: reduction in the number of viable organisms (C. albicans)), the log reduction at 500 µM fell in the range of 1 to 2.
